Experimental data from patent US11154529B2, “Phosphaplatin liquid formulations” (Phosplatin Therapeutics Inc., priority 2016, dated 2021).
Several values for one entry are separate records, joined by “and”; a condition that tells them apart may be missing. Identical values can stand only once.

Assay: Ready-to-use formulation stability at 25° C./60% RH, 5 mg/mL (R,R)-pyrodach-2 in 10 mM Potassium Phosphate Buffer at pH 7.4, 10 mL vials
Type: physicochemical
Procedure: A scalable and commercially viable process for the manufacture of a ready-to-use formulation of (R,R)-pyrodach-2 in 10 mM buffer adjusted to a pH of 7.0-7.5 comprises the steps of: a) preparing a 10 mM aqueous solution of buffer; b) adding sufficient hydroxide base to effect neutralization of the added (R,R)-pyrodach-2 to reach a pH of about 7; c) adding (R,R)-pyrodach-2 and allowing it to dissolve; d) if necessary adding additional hydroxide to adjust the pH into a range of about 7.0-7.5; and e) filtering the solution under sterile conditions, filling the solution into glass vials, and covering it with a stopper and/or a cap. Stability data on two large batches of 5 mg/mL (R,R)-pyrodach-2 in 10 mM potassium phosphate buffer were generated. One such batch at pH=7.2 was evaluated at both 25° C./60% RH and refrigerated (2-8° C.) conditions, with data summarized in Table 4 and Table 5, respectively. […] Similar observations have been made for the ready-to-use liquid formulation at pH7.4, as illustrated in Table 6 and Table 7.
• Transfer 4564.6 mg±0.5 mg of potassium phosphate dibasic, trihydrate to a 2-L volumetric flask. • Fill flask to approximately 75% volume with water, swirl as needed to dissolve all solids. • Volumetrically transfer 32.0 mL of 1N KOH to flask. • Dilute flask to volume with water and mix well. • Record pH of final solution. This is the diluent. • Transfer 7653.1 mg±0.5 mg of (R,R)-pyrodach-2 to a compounding vessel. • Transfer 1500 mL of the diluent to the vessel and stir to dissolve solids. • Record pH of final solution. • Pass entire solution through a 0.22 μm sterile filter membrane into a sterile collection vessel. • Calculate (R,R)-pyrodach-2 solution concentration
To a […] glass beaker equipped with mechanical mixer was add 24645.5 g of sterile water for injection. With agitation 47.03 gm of dibasic potassium phosphate USP was added and the solids allowed to dissolve. To the stirred solution was added 253.8 gm of 1.00 N potassium hydroxide. Sterile water for injection USP (900.0 gm) was used as a rinse to facilitate both additions. With vigorous agitation, (R,R)-pyrodach-2 (201.87 gm) was slowly added and agitation continued until all of the solids dissolved. Sterile water for injection USP (900.0 gm) was used as a rinse to facilitate the addition. The pH was determined to be 6.7. A total of 85 mL of 1.00 N potassium hydroxide was added in 5.0 mL aliquots to adjust the pH to 7.3. The solution was sterile filtered through 0.22μ Millipore Millipack filter and aseptically filled, 10 ml top a vial in 10 mL in 10 cc Wheaton clear molded vails, stoppered with a 20 mm stopper and crimp seal capped.

O=P1(O)OP(=O)(O)[O][Pt]2([NH][C@@H]3CCCC[C@H]3[NH]2)[O]1 (stereo partly drawn) [(R,R)-pyrodach-2, (R,R)-trans-1,2-cyclohexanediamine-(dihydrogenpyrophosphato)platinum(II)]
(DACH) Pt-diaquo (~RRT 0.3) (1 Month): 0.16% | (DACH) Pt-monoaquo (~RRT 0.7) (1 Month): 1.12% | Assay (Potency) (1 Month): 98.4% | PT-112 Dimer (~RRT 4.0) (1 Month): 0.35% | RRT 0.50 (1 Month): 0.07% | RRT 0.56 (1 Month): 0.15% | RRT 0.68 (1 Month): 0.21% | RRT 0.86 (1 Month): 0.06% | RRT 3.1-3.2 (1 Month): 0.56% | Total Related Substances (1 Month): 3% | pH (1 Month): 7.4 | (DACH) Pt-diaquo (~RRT 0.3) (3 Month): 0.15% | (DACH) Pt-monoaquo (~RRT 0.7) (3 Month): 0.92% | Assay (Potency) (3 Month): 99.2% | PT-112 Dimer (~RRT 4.0) (3 Month): 0.33% | RRT 0.50 (3 Month): 0.11% | RRT 0.56 (3 Month): 0.20% | RRT 0.68 (3 Month): 0.11% | RRT 0.86 (3 Month): 0.05% | RRT 3.1-3.2 (3 Month): 0.77% | RRT 3.58 (3 Month): 0.14% | Total Related Substances (3 Month): 3% | pH (3 Month): 7.4 | (DACH) Pt-diaquo (~RRT 0.3) (6 Month): 0.19% | (DACH) Pt-monoaquo (~RRT 0.7) (6 Month): 0.30% | Assay (Potency) (6 Month): 96.7% | PT-112 Dimer (~RRT 4.0) (6 Month): 0.36% | RRT 0.42 (6 Month): 0.06% | RRT 0.46 (6 Month): 0.09% | RRT 0.50 (6 Month): 0.31% | RRT 0.56 (6 Month): 0.09% | RRT 0.68 (6 Month): 0.16% | RRT 0.86 (6 Month): 0.07% | RRT 3.1-3.2 (6 Month): 0.86% | RRT 3.58 (6 Month): 0.37% | RRT 4.95 (6 Month): 0.06% | Total Related Substances (6 Month): 3% | pH (6 Month): 7.4 | Particulate Matter (Light Obscuration) (6 Month, first value): 87 particles particles per container | Particulate Matter (Light Obscuration) (6 Month, second value): 3 particles particles per container | (DACH) Pt-diaquo (~RRT 0.3) (9 Month): 0.14% | (DACH) Pt-monoaquo (~RRT 0.7) (9 Month): 0.79% | Assay (Potency) (9 Month): 98.2% | PT-112 Dimer (~RRT 4.0) (9 Month): 0.34% | RRT 0.42 (9 Month): 0.08% | RRT 0.46 (9 Month): 0.08% | RRT 0.50 (9 Month): 0.39% | RRT 0.56 (9 Month): 0.11% | RRT 0.68 (9 Month): 0.11% | RRT 0.86 (9 Month): 0.06% | RRT 3.1-3.2 (9 Month): 0.84% | RRT 3.41 (9 Month): 0.08% | RRT 3.58 (9 Month): 0.65% | RRT 4.95 (9 Month): 0.21% | Total Related Substances (9 Month): 4% | pH (9 Month): 7.4 | (DACH) Pt-diaquo (~RRT 0.3) (12 Month): 0.11% | (DACH) Pt-monoaquo (~RRT 0.7) (12 Month): 0.92% | Assay (Potency) (12 Month): 98.0% | PT-112 Dimer (~RRT 4.0) (12 Month): 0.30% | RRT 0.42 (12 Month): 0.10% | RRT 0.46 (12 Month): 0.07% | RRT 0.50 (12 Month): 0.38% | RRT 0.56 (12 Month): 0.19% | RRT 0.68 (12 Month): 0.11% | RRT 0.86 (12 Month): 0.05% | RRT 3.1-3.2 (12 Month): 0.82% | RRT 3.58 (12 Month): 0.70% | RRT 4.95 (12 Month): 0.34% | Total Related Substances (12 Month): 4% | pH (12 Month): 7.5 | Particulate Matter (Light Obscuration) (12 Month, first value): 118 particles per container | Particulate Matter (Light Obscuration) (12 Month, second value): 7 particles particles per container | (DACH) Pt-diaquo (~RRT 0.3) (15 Month): 0.13% | (DACH) Pt-monoaquo (~RRT 0.7) (15 Month): 0.92% | Assay (Potency) (15 Month): 96.8% | PT-112 Dimer (~RRT 4.0) (15 Month): 0.28% | RRT 0.42 (15 Month): 0.12% | RRT 0.46 (15 Month): 0.08% | RRT 0.50 (15 Month): 0.44% | RRT 0.56 (15 Month): 0.20% | RRT 0.68 (15 Month): 0.11% | RRT 0.86 (15 Month): 0.05% | RRT 3.1-3.2 (15 Month): 0.78% | RRT 3.58 (15 Month): 0.78% | RRT 4.95 (15 Month): 0.51% | Total Related Substances (15 Month): 4% | pH (15 Month): 7.5 | (DACH) Pt-diaquo (~RRT 0.3) (18 Month): 0.12% | (DACH) Pt-monoaquo (~RRT 0.7) (18 Month): 0.78% | Assay (Potency) (18 Month): 96.9% | PT-112 Dimer (~RRT 4.0) (18 Month): 0.29% | RRT 0.42 (18 Month): 0.15% | RRT 0.46 (18 Month): 0.13% | RRT 0.50 (18 Month): 0.59% | RRT 0.56 (18 Month): 0.09% | RRT 0.68 (18 Month): 0.08% | RRT 0.86 (18 Month): 0.05% | RRT 3.1-3.2 (18 Month): 0.73% | RRT 3.44 (18 Month): 0.12% | RRT 3.58 (18 Month): 1.06% | RRT 4.95 (18 Month): 0.69% | Total Related Substances (18 Month): 5% | pH (18 Month): 7.5 | (DACH) Pt-diaquo (~RRT 0.3) (21 Month): 0.11% | (DACH) Pt-monoaquo (~RRT 0.7) (21 Month): 1.13% | Assay (Potency) (21 Month): 96.3% | PT-112 Dimer (~RRT 4.0) (21 Month): 0.28% | RRT 0.42 (21 Month): 0.16% | RRT 0.46 (21 Month): 0.12% | RRT 0.50 (21 Month): 0.60% | RRT 0.56 (21 Month): 0.17% | RRT 0.68 (21 Month): 0.12% | RRT 3.1-3.2 (21 Month): 0.75% | RRT 3.41 (21 Month): 0.07% | RRT 3.44 (21 Month): 0.05% | RRT 3.58 (21 Month): 1.12% | RRT 4.95 (21 Month): 0.89% | Total Related Substances (21 Month): 6% | pH (21 Month): 7.4 | (DACH) Pt-diaquo (~RRT 0.3) (24 Month): 0.11% | (DACH) Pt-monoaquo (~RRT 0.7) (24 Month): 0.85% | Assay (Potency) (24 Month): 94.6% | PT-112 Dimer (~RRT 4.0) (24 Month): 0.28% | RRT 0.42 (24 Month): 0.18% | RRT 0.46 (24 Month): 0.12% | RRT 0.50 (24 Month): 0.70% | RRT 0.56 (24 Month): 0.17% | RRT 0.68 (24 Month): 0.13% | RRT 0.86 (24 Month): 0.05% | RRT 3.1-3.2 (24 Month): 0.72% | RRT 3.29 (24 Month): 0.06% | RRT 3.44 (24 Month): 0.05% | RRT 3.58 (24 Month): 1.07% | RRT 4.95 (24 Month): 1.12% | Total Related Substances (24 Month): 6% | pH (24 Month): 7.4 | (DACH) Pt-diaquo (~RRT 0.3) (Initial): 0.16% | (DACH) Pt-monoaquo (~RRT 0.7) (Initial): 0.84% | Assay (Potency) (Initial): 98.1% | PT-112 Dimer (~RRT 4.0) (Initial): 0.34% | RRT 0.50 (Initial): 0.06% | RRT 0.56 (Initial): 0.08% | RRT 0.68 (Initial): 0.09% | RRT 3.1-3.2 (Initial): 0.11% | Total Related Substances (Initial): 2% | pH (Initial): 7.4 | Particulate Matter (Light Obscuration) (Initial, first value): 30 particles particles per container and 30 particles per particles per container | Particulate Matter (Light Obscuration) (Initial, second value): 11 particles particles per container and 11 particles per particles per container
